{
  "source": "patent US4892813A",
  "about": "“Method for the determination of the enzymatic activity of convertase” (Centre National de la Recherche Scientifique, priority 1987, dated 1990)",
  "assay_type_in_all_cases": "biochemical, rat",
  "key": {"somatostatin convertase [1]": {"test_system": "somatostatin convertase", "test": "Competition of peptides with iodinated peptide I in the enzymatic conversion by somatostatin convertase", "conditions": "1 μl of each peptide or 2 μg of somatostatin 28; ^125 I peptide I (30,000 cpm), pH 7, 37° C., 2 hours; 0% = maximum conversion of peptide I to peptide II", "description": "The ability of several analogous peptides to compete with the peptide I in the enzymatic conversion was evaluated by means of competition experiments. The results given in the table which follows indicate that either the peptide of 28 AA (S-28) or the noniodinated substrate of II AA (deiodinated peptide I) competed effectively (75% and 85% respectively) with the iodinated peptide I. It is interesting to observe that simple replacement of Lys with Arg in the dibasic doublet (cleavage site) produced a peptide III, which competed with the iodinated substrate (peptide I) with an efficacy of only 30%.\nThe enzyme prepared from the Sephadex G150 column was incubated in a\nmixture containing either 1 μl of each of the peptides described above\nor 2 μg of somatostatin 28 and ^125 IPeptide I (30,000 cpm) in a\nbuffer solution of TrisHCl (pH 7) at 37° C. for 2 hours. 0%\ninhibition corresponds to a maximum conversion of the peptide I to the […]"}, "undesirable activity": {"test_system": "undesirable activity", "test": "Conversion of iodine-125-labeled peptide I by brain extracts, undesirable activity (% of Asn-^125 I-Tyr(NH2) generated)", "conditions": "molecular sieve fraction, peptide I (20,000 cpm), 2 hours, % of starting materials", "description": "(§1) Male Wistar rats (100-120 g) were sacrificed by quick decapitation and the cerebral cortex was removed immediately. The fresh dissected tissue was homogenized in a Potter Elvehjem apparatus in a buffer solution of phosphate (pH 7.4) at a concentration of 50 mM and potassium chloride at a concentration of 200 mM (5 ml of buffer per cortex).\n(§2) The extract was then centrifuged at 3000×g for 15 minutes and the supernatant was filtered on a Sephadex G-150 column in 0.25M Tris-HCl (pH 7).\n(§3) The proteolytic activities were tested in the following way. The peptide I labeled with iodine 125 (20,000 cpm), dissolved in 10 μl of 250 mM Tris-HCl (pH 7), was incubated at 37° C. with an aliquot either of crude extract of rat cerebral cortex or of fractions derived from gel filtration or derived from ion exchange chromatography (final volume of 300 μl in 0.25M Tris-HCl (pH 7)).\n(§4) 50 μl samples of the mixture were taken at different times during the reaction and the reaction was stopped by the addition of 600 μl of CM-52 resin in 30 mM ammonium acetate (pH 6) (1:10, vol./vol.). The mixture was then centrifuged at 10,000×g for 30 seconds on a Beckman microcentrifuge. […] After the second washing by elution at each of its saline concentrations, the iodinated products retained on the resin were counted.\n(§5) The results were calculated as follows: [formula] where the specific activity represents the percentage of peptides II generated, the undesirable activity represents the percentage of Asn-^125 I-Tyr(NH2) generated, t is the total cpm in 50 μl of the mixture, x1 is the cpm found after washing with the 30 mM ammonium acetate, x2 is the cpm found after washing with the 100 mM ammonium acetate, and y1 and y2 are the cpm values found respectively after the 30 mM and 100 mM washings of the resin with the peptide I by itself.\n(§6) The extracts were obtained from three regions of the brain and were fractionated by filtration on a molecular sieve. A 50 μl aliquot corresponding to an activity peak was incubated with the peptide I (20,000 cpm) for 2 hours and the products were analyzed by ion exchange."}, "somatostatin convertase [2]": {"test_system": "somatostatin convertase", "test": "Conversion of iodine-125-labeled peptide I by brain extracts, specific activity (% of peptide II generated)", "conditions": "molecular sieve fraction, peptide I (20,000 cpm), 2 hours, % of starting materials", "description": "as §1, §2, §3, §4, §5, §6"}},
  "note": "Where no end group is shown, it is not given here.",
  "data": [
    {"substance": "Somatostatin 28: direct precursor of somato 14, a peptide consisting of 28 AA [reference compound]", "values": [
      {"measurement": "% inhibition of the conversion activity (competition with iodinated peptide I)", "setting": "somatostatin convertase [1]", "value": 75, "unit": "%"}
    ]},
    {"substance": "Asn-^125 I-Tyr(NH2)", "values": [
      {"measurement": "% of products generated, Asn-^125 I-Tyr(NH2)", "setting": "undesirable activity; Hypothalamus extract", "value": 90, "unit": "%"},
      {"measurement": "% of products generated, Asn-^125 I-Tyr(NH2)", "setting": "undesirable activity; Neocortex extract", "value": 40, "unit": "%"},
      {"measurement": "% of products generated, Asn-^125 I-Tyr(NH2)", "setting": "undesirable activity; Pituitary gland extract", "value": 37, "unit": "%"}
    ]},
    {"substance": "Ala-Gly-Ala-Lys-Asn-Tyr(NH2)* [Peptide II]", "values": [
      {"measurement": "% of products generated, Peptide II labeled with 125I", "setting": "somatostatin convertase [2]; Hypothalamus extract", "value": 7, "unit": "%"},
      {"measurement": "% of products generated, Peptide II labeled with 125I", "setting": "somatostatin convertase [2]; Neocortex extract", "value": 18, "unit": "%"},
      {"measurement": "% of products generated, Peptide II labeled with 125I", "setting": "somatostatin convertase [2]; Pituitary gland extract", "value": 20, "unit": "%"}
    ]},
    {"substance": "PRERKAGAKNY-NH2 [De^125 IPeptide I]", "values": [
      {"measurement": "% inhibition of the conversion activity (competition with iodinated peptide I)", "setting": "somatostatin convertase [1]", "value": 85, "unit": "%"}
    ]}
  ]
}
